Experimental data as given in patent US11155557B2, “Pyrazolopyrimidine compounds and methods of use thereof” (Genentech, Inc., priority 2016, dated 2021).
Read-outs that look alike come from different tables or passages of the source.

Tests used:
[1] = target: isolated recombinant JAK1 kinase domain (Homo sapiens (Human), UniProt P23458); experiment: JAK1 enzyme assay (Caliper LabChip, Ki); format: biochemical
Protocol: The activity of the isolated recombinant JAK1 and JAK2 kinase domain was measured by monitoring phosphorylation of a peptide derived from JAK3 ([…] fluorescently labeled on the N-terminus with 5-carboxyfluorescein) using the Caliper LabChip R technology (Caliper Life Sciences, Hopkinton, Mass.).

[2] = tested on: JAK1-dependent STAT6 phosphorylation in BEAS-2B human bronchial epithelial cells; experiment: JAK1 pathway assay: IL-13 stimulated STAT6 phosphorylation in BEAS-2B cells; format: cell-based; details: BEAS-2B cells, IL-13 stimulation, read-out: IL-13 p-STAT6 BEAS-2B IC50
How it was run: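 BEAS-2B bronchial epithelial cells plated one day before, run in complete growth medium. Phospho-STAT6 in lysates measured by MesoScale Discovery; EC50 reported.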

[3] = target: isolated recombinant JAK2 kinase domain (Homo sapiens (Human), UniProt O60674); experiment: JAK2 enzyme assay (Caliper LabChip, Ki); details: read-out: JAK2 Ki
Sequence of isolated recombinant JAK2 kinase domain (O60674 849-1124): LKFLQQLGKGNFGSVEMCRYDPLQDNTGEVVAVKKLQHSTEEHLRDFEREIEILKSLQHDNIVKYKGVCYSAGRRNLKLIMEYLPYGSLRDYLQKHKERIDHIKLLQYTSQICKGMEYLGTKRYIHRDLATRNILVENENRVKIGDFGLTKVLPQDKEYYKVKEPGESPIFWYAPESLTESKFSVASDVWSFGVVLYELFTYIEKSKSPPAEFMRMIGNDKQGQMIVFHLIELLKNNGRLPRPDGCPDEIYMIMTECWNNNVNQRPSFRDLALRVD
Protocol: JAK Enzyme Assays were Carried Out as Follows:
The activity of the isolated recombinant JAK1 and JAK2 kinase domain was measured by monitoring phosphorylation of a peptide derived from JAK3 ([sequence] fluorescently labeled on the N-terminus with 5-carboxyfluorescein) using the Caliper LabChip R technology (Caliper Life Sciences, Hopkinton, Mass.). […] After termination of the kinase reaction, the proportion of phosphorylated product was determined as a fraction of total peptide substrate using the Caliper LabChip R 3000 according to the manufacturer's specifications.

Sequence of isolated recombinant JAK1 kinase domain (P23458 875-1153): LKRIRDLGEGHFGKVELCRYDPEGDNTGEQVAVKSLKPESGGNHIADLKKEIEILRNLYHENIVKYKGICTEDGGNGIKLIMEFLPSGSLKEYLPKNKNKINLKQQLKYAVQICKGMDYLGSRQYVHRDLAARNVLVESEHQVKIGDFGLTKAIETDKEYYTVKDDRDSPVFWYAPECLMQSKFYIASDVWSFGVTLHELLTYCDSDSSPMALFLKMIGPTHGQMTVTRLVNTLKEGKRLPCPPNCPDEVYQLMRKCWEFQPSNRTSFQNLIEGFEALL

Row | Structure (SMILES) | Ki [1] | IC50 ([2]; Homo sapiens, BEAS-2B) | Ki [3] | IC50 [2]
1 | CNCCn1cc(NC(=O)c2cnn3cccnc23)c(-c2cc3c(cc2OC(F)F)NC(=O)CS3)n1 [Example 79, N-[3-[6-(difluoromethoxy)-3-oxo-4H-1,4-benzothiazin-7-yl]-1-[2-(methylamino)ethyl]pyrazol-4-yl]pyrazolo[1,5-a]pyrimidine-3-carboxamide] | 0.18 nM | 97 nM | 0.13 nM | –
2 | CNCCn1cc(NC(=O)c2cnn3cccnc23)c(-c2cc3c(cc2OC(F)F)NCCS3)n1 [Example 81, N-[3-[6-(difluoromethoxy)-3,4-dihydro-2H-1,4-benzothiazin-7-yl]-1-[2-(methylamino)ethyl]pyrazol-4-yl]pyrazolo[1,5-a]pyrimidine-3-carboxamide] | 0.12 nM | 7 nM | 0.11 nM | –
3 | CN(C)CCn1cc(NC(=O)c2cnn3cccnc23)c(-c2cc3c(cc2OC(F)F)NCCS3)n1 [Example 82, N-[3-[6-(difluoromethoxy)-3,4-dihydro-2H-1,4-benzothiazin-7-yl]-1-[2-(dimethylamino)ethyl]pyrazol-4-yl]pyrazolo[1,5-a]pyrimidine-3-carboxamide] | 0.23 nM | 7 nM | 0.16 nM | –
4 | CN(C)CCn1cc(NC(=O)c2cnn3cccnc23)c(-c2cc3c(cc2OC(F)F)NC(=O)CS3)n1 [Example 83, N-[3-[6-(difluoromethoxy)-3-oxo-4H-1,4-benzothiazin-7-yl]-1-[2-(dimethylamino)ethyl]pyrazol-4-yl]pyrazolo[1,5-a]pyrimidine-3-carboxamide] | 0.23 nM | 14 nM | 0.14 nM | –
5 | O=C(Nc1cn(C2COC2)nc1-c1cc2c(cc1OC(F)F)NCCO2)c1cnn2cccnc12 [Example 84, N-[3-[6-(difluoromethoxy)-3,4-dihydro-2H-1,4-benzoxazin-7-yl]-1-(oxetan-3-yl)pyrazol-4-yl]pyrazolo[1,5-a]pyrimidine-3-carboxamide] | 0.19 nM | 8 nM | 0.12 nM | –
6 | O=C(Nc1cn(CCN2CCOCC2)nc1-c1cc2ccccc2cc1OC(F)F)c1cnn2cccnc12 [Example 85, N-[3-[3-(difluoromethoxy)-2-naphthyl]-1-(2-morpholinoethyl)pyrazol-4-yl]pyrazolo[1,5-a]pyrimidine-3-carboxamide] | 1.32 nM | 34 nM | 1.69 nM | –
7 | CN1CCC(Cn2cc(NC(=O)c3cnn4cccnc34)c(-c3cc4ccccc4cc3OC(F)F)n2)CC1 [Example 86, N-[3-[3-(difluoromethoxy)-2-naphthyl]-1-[(1-methyl-4-piperidyl)methyl]pyrazol-4-yl]pyrazolo[1,5-a]pyrimidine-3-carboxamide] | 1.53 nM | 31 nM | 1.02 nM | –
8 | CCn1cc(NC(=O)c2cnn3cccnc23)c(-c2cc3ccccc3cc2OC(F)F)n1 [Example 87, N-[3-[3-(difluoromethoxy)-2-naphthyl]-1-ethyl-pyrazol-4-yl]pyrazolo[1,5-a]pyrimidine-3-carboxamide] | 0.62 nM | 15 nM | 0.42 nM | –
9 | Cn1cc(NC(=O)c2cnn3cccnc23)c(-c2cc3c(cc2OC(F)F)NCCS3)n1 [Example 88, N-[3-[6-(difluoromethoxy)-3,4-dihydro-2H-1,4-benzothiazin-7-yl]-1-methyl-pyrazol-4-yl]pyrazolo[1,5-a]pyrimidine-3-carboxamide] | 0.08 nM | 5 nM | 0.1 nM | –
10 | Cn1cc(NC(=O)c2cnn3cccnc23)c(-c2cc3c(cc2OC(F)F)NCCO3)n1 [Example 89, N-[3-[6-(difluoromethoxy)-3,4-dihydro-2H-1,4-benzoxazin-7-yl]-1-methyl-pyrazol-4-yl]pyrazolo[1,5-a]pyrimidine-3-carboxamide] | 0.12 nM | 7 nM | 0.1 nM | –
11 | Cn1cc(NC(=O)c2cnn3cccnc23)c(-c2cc3c(cc2OC(F)F)NC(=O)CS3)n1 [Example 90, N-[3-[6-(difluoromethoxy)-3-oxo-4H-1,4-benzothiazin-7-yl]-1-methyl-pyrazol-4-yl]pyrazolo[1,5-a]pyrimidine-3-carboxamide] | 0.07 nM | 5 nM | 0.07 nM | –
12 | Cn1cc(NC(=O)c2cnn3cccnc23)c(-c2cc3sc(C(=O)N4CCNCC4)cc3cc2OC(F)F)n1 [Example 91, N-[3-[5-(difluoromethoxy)-2-(piperazine-1-carbonyl)benzothiophen-6-yl]-1-methyl-pyrazol-4-yl]pyrazolo[1,5-a]pyrimidine-3-carboxamide] | 4.03 nM | 308 nM | 1.85 nM | –
13 | COC(=O)Cn1cc(NC(=O)c2cnn3cccnc23)c(-c2cc3sc(C(N)=O)cc3cc2OC(F)F)n1 [Example 92, methyl 2-[3-[2-carbamoyl-5-(difluoromethoxy)benzothiophen-6-yl]-4-(pyrazolo[1,5-a]pyrimidine-3-carbonylamino)pyrazol-1-yl]acetate] | 0.22 nM | 92 nM | 0.2 nM | –
14 | CC1CNc2cc(OC(F)F)c(-c3n[nH]cc3NC(=O)c3cnn4cccnc34)cc2S1 (stereo not drawn) [Example 94, N-[3-[6-(difluoromethoxy)-2-methyl-3,4-dihydro-2H-1,4-benzothiazin-7-yl]-1H-pyrazol-4-yl]pyrazolo[1,5-a]pyrimidine-3-carboxamide] | 0.07 nM | – | 0.05 nM | 7 nM
15 | CN(C)C(=O)Cn1cc(NC(=O)c2cnn3cccnc23)c(-c2cc3c(cc2OC(F)F)NCCS3)n1 [Example 99, N-[3-[6-(difluoromethoxy)-3,4-dihydro-2H-1,4-benzothiazin-7-yl]-1-[2-(dimethylamino)-2-oxo-ethyl]pyrazol-4-yl]pyrazolo[1,5-a]pyrimidine-3-carboxamide] | 0.12 nM | 24 nM | 0.12 nM | –
16 | CN(C)C(=O)Cn1cc(NC(=O)c2cnn3cccnc23)c(-c2cc3c(cc2OC(F)F)NCCO3)n1 [Example 100, N-[3-[6-(difluoromethoxy)-3,4-dihydro-2H-1,4-benzoxazin-7-yl]-1-[2-(dimethylamino)-2-oxo-ethyl]pyrazol-4-yl]pyrazolo[1,5-a]pyrimidine-3-carboxamide] | 0.18 nM | 39 nM | 0.34 nM | –
17 | CN(C)C(=O)Cn1cc(NC(=O)c2cnn3cccnc23)c(-c2cc3c(cc2OC(F)F)CCO3)n1 [Example 109, N-[3-[5-(difluoromethoxy)-2,3-dihydrobenzofuran-6-yl]-1-[2-(dimethylamino)-2-oxo-ethyl]pyrazol-4-yl]pyrazolo[1,5-a]pyrimidine-3-carboxamide] | 0.22 nM | 22 nM | 0.42 nM | –
18 | CC1(C)CNc2cc(OC(F)F)c(-c3n[nH]cc3NC(=O)c3cnn4cccnc34)cc2S1 [Example 110, N-[3-[6-(difluoromethoxy)-2,2-dimethyl-3,4-dihydro-1,4-benzothiazin-7-yl]-1H-pyrazol-4-yl]pyrazolo[1,5-a]pyrimidine-3-carboxamide] | 0.08 nM | 10 nM | 0.05 nM | –
19 | CC1(C)COc2cc(OC(F)F)c(-c3n[nH]cc3NC(=O)c3cnn4cccnc34)cc2C1=O [Example 115, N-[3-[7-(difluoromethoxy)-3,3-dimethyl-4-oxo-chroman-6-yl]-1H-pyrazol-4-yl]pyrazolo[1,5-a]pyrimidine-3-carboxamide] | 0.91 nM | 55 nM | 0.36 nM | –
20 | CNC(=O)Cn1cc(NC(=O)c2cnn3cccnc23)c(-c2cc3c(cc2OC(F)F)NCCO3)n1 [Example 116, N-[3-[6-(difluoromethoxy)-3,4-dihydro-2H-1,4-benzoxazin-7-yl]-1-[2-(methylamino)-2-oxo-ethyl]pyrazol-4-yl]pyrazolo[1,5-a]pyrimidine-3-carboxamide] | 0.25 nM | 42 nM | 0.4 nM | –
21 | CNC(=O)Cn1cc(NC(=O)c2cnn3cccnc23)c(-c2cc3c(cc2OC(F)F)NCCS3)n1 [Example 117, N-[3-[6-(difluoromethoxy)-3,4-dihydro-2H-1,4-benzothiazin-7-yl]-1-[2-(methylamino)-2-oxo-ethyl]pyrazol-4-yl]pyrazolo[1,5-a]pyrimidine-3-carboxamide] | 0.1 nM | 24 nM | 0.1 nM | –
22 | C[C@@H]1CNc2cc(OC(F)F)c(-c3n[nH]cc3NC(=O)c3cnn4cccnc34)cc2O1 [Example 118, N-[3-[(2R)-6-(difluoromethoxy)-2-methyl-3,4-dihydro-2H-1,4-benzoxazin-7-yl]-1H-pyrazol-4-yl]pyrazolo[1,5-a]pyrimidine-3-carboxamide] | 0.68 nM | 37 nM | 0.23 nM | –
23 | CNC(=O)Cn1cc(NC(=O)c2cnn3cccnc23)c(-c2cc3c(cc2OC(F)F)SCCO3)n1 [Example 119, N-[3-[6-(difluoromethoxy)-2,3-dihydro-1,4-benzoxathiin-7-yl]-1-[2-(methylamino)-2-oxo-ethyl]pyrazol-4-yl]pyrazolo[1,5-a]pyrimidine-3-carboxamide] | 1.01 nM | 40 nM | 1.93 nM | –
24 | CN(C)C(=O)Cn1cc(NC(=O)c2cnn3cccnc23)c(-c2cc3c(cc2OC(F)F)SCCO3)n1 [Example 120, N-[3-[6-(difluoromethoxy)-2,3-dihydro-1,4-benzoxathiin-7-yl]-1-[2-(dimethylamino)-2-oxo-ethyl]pyrazol-4-yl]pyrazolo[1,5-a]pyrimidine-3-carboxamide] | 0.63 nM | 46 nM | 2.54 nM | –
